# US12600696B2 (XENIOPRO GMBH, priority 2017, dated 2026)
# Assays:
# Type in all cases: cell-based
# [1] = test system: HPEKp cells (human epidermal keratinocyte progenitors, pooled); test: alamarBlue proliferation assay with HPEKp cells; details: 120 h, relative to DMSO basis level 1.0, read-out: weighted arithmetic mean (AVEw) of normalized fluorescence intensity, activity range
# Procedure, shortened: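 Pooled HPEKp cells in CnT-Prime medium, 2000 cells/well, were exposed to compound at 0.1% DMSO for 5 days. Growth was read by alamarBlue fluorescence (ex 560, em 590 nm) and normalized to the DMSO mean, with outliers excluded, as a weighted mean ± combined SD. Inhibition was judged at 10 μM, with mean+SD ≤0.9 as the criterion.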
# [2] = test system: BHY cells (human oral squamous cell carcinoma cells); test: alamarBlue proliferation assay with BHY cells; details: 72 h, 3 days treatment, single assay (preliminary), relative to DMSO basis level 1.0, read-out: equally weighted arithmetic mean (AVE) of six normalized fluorescence intensity values, activity range (RES: AVEw)
# Method: Compounds were tested on BHY cells using the alamarBlue® proliferation assay in analogy to the above described method with seeding the cells at an initial number of 4000 cells per 96-well and a duration of treatment with compounds for 3 days.
# BHY cells were cultivated according to the protocol of the provider (but at 5% instead of 10% CO2) in DMEM medium (Fisherscientific, #11584456) containing 10% fetal bovine serum (Fisherscientific, #15517589).
# A compound is considered as a growth inhibitor of BHY cells, if—at a reference concentration of 40 μM—the equally weighted arithmetic mean (AVE) of the six normalized fluorescence intensity values after addition of the corresponding standard deviation amounts to 0.9 or lower, in particular to 0.8 or lower, 0.7 or lower, 0.6 or lower, 0.4 or lower, and 0.2 or lower, relative to the overall basis level of 1.0. The overall basis level was calculated as the weighted arithmetic mean (AVEw) of all normalized values from the DMSO control measurements. The corresponding combined standard deviation for the DMSO values amounts to less than 1·10^−2. The corresponding standard deviations for the tested compounds were calculated including the Gauß′ error propagation associated with the performed calculation for the normalization. The weighted arithmetic mean (AVEw) and the combined standard deviation for RES was calculated in analogy to DMSO. Outlier analyses were performed as described above.
# [3] = test system: HeLa cells (human cervical adenocarcinoma cells); test: alamarBlue proliferation assay with HeLa cells; details: relative to DMSO basis level 1.0
# Method: The antiproliferative activities of compounds falling under formula I, formula II, formula III, formula IV and formula V were investigated on cells or cell lines originating from a disorder of the myeloid cell compartment, the neuroendocrine system, the cervix, and the mucosal epithelium, as well as from the skin epithelium. To this end, HL-60 cells, TT cells, HeLa cells, CAL-27 cells and human primary epidermal keratinocytes (HPEK) were seeded into 96-well plates suitable for fluorescence assays (CORNING #3598) at following initial cell numbers: 1000 cells per well for HL-60; 9000 cells per well for TT; 2000 cells per well for HeLa, 2000 cells per well for CAL-27, 2000 cells per well for HPEK. […] The readout was taken with a multi-well plate-reader in the fluorescence mode with applying a filter for excitation at 560 nm (band width 10 nm) and for emission at 590 nm (band width 10 nm). […]
# The assays were performed in duplicate or more replicates of independent single experiments each containing a six-fold replicate for every condition. For every individual plate, the measured fluorescence intensity values of the conditions with compound treatment were normalized against the corresponding equally weighted arithmetic mean of the fluorescence intensity values of the six DMSO treated control wells in order to obtain the relative values to a baseline level of 1.0. […]
compound,measurement,setting,value
"NC(=O)c1ccc(Oc2ccc(C3CC4CCC3C4)cc2)cc1 (racemic) [Compound 159, (±)-4-(4-(Bicyclo[2.2.1]heptan-2-yl)phenoxy)benzamide]",activity at 10 µM,[1],0 to 20%
"CCC(C)(C)c1ccc(Oc2ccc(C(=O)NO)cc2)cc1 [Compound 171, N-hydroxy-4-(4-(tert-pentyl)phenoxy)benzamide]",activity at 40 µM,[2],40 to 60%
"O=C(NO)c1ccc(Oc2ccc(C3CCCCC3)cc2)cc1 [Compound 182, 4-(4-cyclohexylphenoxy)-N-hydroxybenzamide]",activity at 10 µM,[1],0 to 20%
same,activity at 40 µM,[2],20 to 40%
"O=C(NO)c1ccc(Oc2ccc(C34CC5CC(CC(C5)C3)C4)cc2)cc1 [Compound 186, 4-(4-(Adamantan-1-yl)phenoxy)-N-hydroxybenzamide]",activity at 40 µM,[2],20 to 40%
"CC(C)c1ccc(Oc2ccc(C(=O)NO)cn2)cc1 [Compound 272, N-hydroxy-6-(4-isopropylphenoxy)nicotinamide]",activity at 40 µM,[2],20 to 40%
"CCC(C)(C)c1ccc(Oc2ccc(C(=O)NO)cn2)cc1 [Compound 273, N-hydroxy-6-(4-(tert-pentyl)phenoxy)nicotinamide]",activity at 10 µM,[1],0 to 20%
"O=C(NO)c1ccc(Oc2ccc(C3CCCCC3)cc2)nc1 [Compound 284, 6-(4-Cyclohexylphenoxy)-N-hydroxynicotinamide]",activity at 40 µM,[2],20 to 40%
"O=C(NO)c1ccc(Oc2ccc(C3CC4CCC3CC4)cc2)nc1 (stereo not drawn) [Compound 287, 6-(4-((1s,4s)-bicyclo[2.2.2]octan-2-yl)phenoxy)-N-hydroxynicotinamide]",activity at 10 µM,[1],0 to 20%
"O=C(NO)c1ccc(Oc2ccc(C34CC5CC(CC(C5)C3)C4)cc2)nc1 [Compound 288, 6-(4-((3r,5r,7r)-adamantan-1-yl)phenoxy)-N-hydroxynicotinamide]",activity at 40 µM,[2],20 to 40%
"CN(C)C(=O)c1ccc(Oc2ccc(C3CCCCC3)cc2)nc1 [Compound 334, 6-(4-cyclohexylphenoxy)-N,N-dimethylnicotinamide]",activity at 10 µM,[1],60 to 70%
"O=C(NO)c1ccc(Oc2ccc(C34CC5CC(CC(C5)C3)C4)cc2)c(F)c1 [Compound 544, 4-(4-(Adamantan-1-yl)phenoxy)-3-fluoro-N-hydroxybenzamide]",activity at 40 µM,[2],20 to 40%
"O=C(NO)c1cnc(Oc2ccc(C3CCCCC3)cc2)c(F)c1 [Compound 644, 6-(4-Cyclohexylphenoxy)-5-fluoro-N-hydroxynicotinamide]",activity at 10 µM,[1],0 to 20%
same,activity at 40 µM,[2],60 to 70%
"Oc1ccc(C=Cc2cc(O)cc(O)c2)cc1 [RES, resveratrol, reference compound]","weighted arithmetic mean (AVEw) of normalized fluorescence intensity, activity range",[3]; 40 μM,0.4 ± 0.0
same,weighted arithmetic mean (AVEw) of normalized fluorescence intensity,[3]; control RES at 20 μM,0.9 ± 0.0
same,activity at 10 µM,[1],40%
same,activity at 40 µM,[2],60%
